Values joined by “and” are separate entries in the source; they are usually repeats but may differ in a detail not shown here. Equal entries are not always repeated.

Results on 32 compounds are retold here after publication PMC12932713, “Structure-activity relationship of prevalent synthetic cannabinoid metabolites on hCB1 in vitro and in silico dynamics” (Acta Pharmacologica Sinica, 2025).

One test concerns the target hCB1 receptor (Homo sapiens, UniProt P21554). Put plainly: AequoScreen hCB1 receptor assay (flash luminescence, recombinant CHO-K1 cells). To be noted: for Emax: CHO-K1, read-out: Efficacy (% JWH-018 activity), Emax, Emax from dose-response curves, normalized to JWH-018 at 20 µg/mL; for Emax / Efficacy (% JWH-018 activity), Emax: triplicates; for EC50: EC50, 8 concentrations 20 µg/mL to 76 or 9.5 ng/mL, normalized to JWH-018 between runs; for Potency retained, % of the potency of the parent: hydroxyindole metabolites versus AM-2201 or JWH-018; for Efficacy (% JWH-018 activity), Emax: Emax from dose-response curves, normalized to JWH-018 at 20 µg/mL.

The test system of another test is CB1 receptor. To be noted: cited from earlier work.
Test [1] concerns serotonin receptor 5-HT2A. More on the design: method as in PMID 27779402, PMID 33160102, PMID 21755008. To be noted: cited from earlier work.

hCB1 receptor, sequence (P21554 whole entry): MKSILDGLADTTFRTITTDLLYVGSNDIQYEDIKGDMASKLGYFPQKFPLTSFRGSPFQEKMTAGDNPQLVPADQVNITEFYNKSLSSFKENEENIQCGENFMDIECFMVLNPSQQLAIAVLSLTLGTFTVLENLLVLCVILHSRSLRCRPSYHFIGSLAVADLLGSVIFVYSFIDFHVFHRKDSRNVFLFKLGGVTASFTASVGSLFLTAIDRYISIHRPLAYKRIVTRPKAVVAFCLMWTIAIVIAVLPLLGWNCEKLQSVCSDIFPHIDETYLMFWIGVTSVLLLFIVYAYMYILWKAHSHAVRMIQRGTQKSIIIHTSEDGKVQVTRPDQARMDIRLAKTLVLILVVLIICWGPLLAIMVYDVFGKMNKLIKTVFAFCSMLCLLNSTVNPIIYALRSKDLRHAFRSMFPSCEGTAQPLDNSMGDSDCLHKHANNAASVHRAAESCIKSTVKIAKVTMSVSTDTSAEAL

As for `O=C(c1cccc2ccccc12)c1c(O)n(CCCCCF)c2ccccc12` [2-OH indole AM-2201], the Emax on hCB1 receptor was found to be 0.26%.
The same measure, in the same setting: the result for `CCCCCn1c(O)c(C(=O)c2cccc3ccccc23)c2ccccc21` [2-OH indole JWH-018] reads -0.38%.
Take `O=C(c1cccc2ccccc12)c1cn(CC(O)CCCF)c2ccccc12` (stereo not drawn) [2-OH pentyl AM-2201]: at hCB1 receptor, the Emax came to 95.1% and the EC50 was found to be 375 nM.
For `CCCC(O)Cn1cc(C(=O)c2cccc3ccccc23)c2ccccc21` (stereo not drawn) [2-OH pentyl JWH-018] the same measures were 82% and 750 nM.
For `CCCC(O)Cn1nc(C(=O)c2cccc3ccccc23)c2ccccc21` (stereo not drawn) [2-OH pentyl THJ-018] the same measures were 93.6% and 1110 nM.
On to `O=C(c1cccc2ccccc12)c1nn(CC(O)CCCF)c2ccccc12` (stereo not drawn) [2-OH-pentyl THJ-2201], for which, at hCB1 receptor, the Emax was 87% and the EC50 amounted to 403 nM.
Taken in the same sequence, the figures for `O=C(c1cccc2ccccc12)c1cn(CCC(O)CCF)c2ccccc12` (stereo not drawn) [3-OH pentyl AM-2201] were 100% and 221 nM.
Taken in the same sequence, the figures for `CCC(O)CCn1cc(C(=O)c2cccc3ccccc23)c2ccccc21` (stereo not drawn) [3-OH pentyl JWH-018] were 96% and 3510 nM.
As to `CCC(O)CCn1nc(C(=O)c2cccc3ccccc23)c2ccccc21` (stereo not drawn) [3-OH pentyl THJ-018], on hCB1 receptor, the Emax worked out at 99.8% and the 50% effective concentration (EC50) amounted to 202 nM.
In the case of `O=C(c1cccc2ccccc12)c1nn(CCC(O)CCF)c2ccccc12` (stereo not drawn) [3-OH-pentyl THJ-2201], on hCB1 receptor, the Emax was determined as 101% and the half-maximal effective concentration (EC50) worked out at 159 nM.
As for `O=C(c1cccc2ccccc12)c1cn(CCCCCF)c2cccc(O)c12` [4-OH indole AM-2201], on hCB1 receptor, the Emax was found to be 94.6%; the EC50 was 44 nM and 43.7 nM; the “Potency retained, % of the potency of the parent” value (from here on “Potency retained, %”) was 83%.
For `CCCCCn1cc(C(=O)c2cccc3ccccc23)c2c(O)cccc21` [4-OH indole JWH-018], on hCB1 receptor, the Emax is 89.8%; the EC50 was 83.6 nM; the “Potency retained, %” value was found to be 51%. Besides, in the test with CB1 receptor, the “Activity on the CB1 receptor in words” value is “active”.
Consider `O=C(c1cccc2ccccc12)c1cn(CCCC(O)CF)c2ccccc12` (stereo not drawn) [4-OH pentyl AM-2201], for which, at hCB1 receptor, the Emax turned out to be 97.1% and the half-maximal effective concentration (EC50) worked out at 63.6 nM.
For `CC(O)CCCn1cc(C(=O)c2cccc3ccccc23)c2ccccc21` (stereo not drawn) [4-OH pentyl JWH-018], on hCB1 receptor, the Emax is 105% and the concentration giving a half-maximal response (EC50) came out at 288 nM. Besides, the “hCB1 activity in other in vitro studies, in words” value (from here on “hCB1 activity in other”) with CB1 receptor is “active metabolites”.
For `CC(O)CCCn1nc(C(=O)c2cccc3ccccc23)c2ccccc21` (stereo not drawn) [4-OH pentyl THJ-018], at hCB1 receptor, the Emax turned out to be 98.5% and the half-maximal effective concentration (EC50) is 175 nM.
Turning to `O=C(c1cccc2ccccc12)c1nn(CCCC(O)CF)c2ccccc12` (stereo not drawn) [4-OH-pentyl THJ-2201], at hCB1 receptor, the Emax is 99.2% and the EC50 stood at 13.7 nM. The “Potency increase versus the parent SC” value at hCB1 receptor (metabolite more potent than parent) was 2.2 ×.
`O=C(c1cccc2ccccc12)c1cn(CCCCCF)c2ccc(O)cc12` [5-OH indole AM-2201]: on hCB1 receptor, the Emax is 93.4%; the EC50 came out at 306 nM; the “Potency retained, %” value is “over 12%”.
Regarding `CCCCCn1cc(C(=O)c2cccc3ccccc23)c2cc(O)ccc21` [5-OH indole JWH-018], at hCB1 receptor, the Emax worked out at 88.9%; the EC50 is 1130 nM; the “Potency retained, %” value is listed as 4%. For the same compound, the “Activity on the CB1 receptor in words” value in the test with CB1 receptor is recorded as “active”.
As for `O=C(c1cccc2ccccc12)c1cn(CCCCCO)c2ccccc12` [5-OH pentyl JWH-018], on hCB1 receptor, the Emax came out at 63.1% and the EC50 worked out at 178 nM. On hCB1 receptor (less than 20% efficacy regarded as inactive), the “hCB1 activity class in words (full agonist, partial agonist, inactive)” value is “partial agonist”. For the same compound, the “hCB1 activity in other” value in the test with CB1 receptor is on record as “active metabolites”.
Turning to `O=C(c1cccc2ccccc12)c1nn(CCCCCO)c2ccccc12` [5-OH pentyl THJ-018], on hCB1 receptor, the Emax stood at 67.3% and the EC50 was 274 nM.
Turning to `O=C(c1cccc2ccccc12)c1cn(CCCCCF)c2cc(O)ccc12` [6-OH indole AM-2201], at hCB1 receptor, the Emax came out at 94%; the EC50 amounted to 122 nM; the “Efficacy (% JWH-018 activity), Emax” value was 94.04 % JWH-018 activity; the “Potency retained, %” value is on record as “over 12%”.
As for `CCCCCn1cc(C(=O)c2cccc3ccccc23)c2ccc(O)cc21` [6-OH indole JWH-018], at hCB1 receptor, the Emax stood at 59%; the EC50 turned out to be 460 nM; the “Efficacy (% JWH-018 activity), Emax” value came out at 59.31 % JWH-018 activity; the “Potency retained, %” value was 4%. Further, in the test with CB1 receptor, the “Activity on the CB1 receptor in words” value is “active” and the “hCB1 activity in other” value is “significantly less Emax than its 5-hydroxy isomer”.
As for `O=C(c1cccc2ccccc12)c1cn(CCCCCF)c2c(O)cccc12` [7-OH indole AM-2201], on hCB1 receptor, the Emax is 110%; the half-maximal effective concentration (EC50) amounted to 282 nM; the “Efficacy (% JWH-018 activity), Emax” value was found to be 109.80 % JWH-018 activity; the “Potency retained, %” value is given as “over 12%”.
As to `CCCCCn1cc(C(=O)c2cccc3ccccc23)c2cccc(O)c21` [7-OH indole JWH-018], at hCB1 receptor, the Emax is under 20% and the “Efficacy (% JWH-018 activity), Emax” value is 15.81 % JWH-018 activity. In addition, the “Activity on the CB1 receptor in words” value in the test with CB1 receptor was “active”.
Regarding `O=C(c1cccc2ccccc12)c1cn(CCCCCF)c2ccccc12` [AM-2201, [1-(5-fluoropentyl)-1H-indol-3-yl]-1-naphthalenyl-methanone, reference compound], on hCB1 receptor, the Emax was 99.7%; the EC50 is 36 nM and 36.4 nM.
With `CCCCCn1cc(C(=O)c2cccc3ccccc23)c2ccccc21` [JWH-018, 1-naphthalenyl(1-pentyl-1H-indol-3-yl)-methanone, reference compound], at hCB1 receptor, the Emax turned out to be 102% and the EC50 is 42.4 nM. Further, the “hCB1 activity in other” value in the test on CB1 receptor is “agonist at nanomolar concentrations”.
For `O=C(O)CCCCn1cc(C(=O)c2cccc3ccccc23)c2ccccc21` [Pentanoic acid JWH-018], at hCB1 receptor, the Emax was 0.23%. In addition, the “hCB1 activity in other” value in the test on CB1 receptor is “inactive”.
As to `O=C(O)CCCCn1nc(C(=O)c2cccc3ccccc23)c2ccccc21` [Pentanoic acid THJ-018], on hCB1 receptor, the Emax amounted to 11.7%.
As for `CCCCCn1nc(C(=O)c2cccc3ccccc23)c2ccccc21` [THJ-018, 1-naphthalenyl(1-pentyl-1H-indazol-3-yl)-methanone, reference compound], at hCB1 receptor, the Emax was 96.4%; the EC50 was 48.8 nM; the “Efficacy (% JWH-018 activity), Emax” value amounted to 96.34 % JWH-018 activity.
Turning to `O=C(c1cccc2ccccc12)c1nn(CCCCCF)c2ccccc12` [THJ-2201, [1-(5-fluoropentyl)-1H-indazol-3-yl]-1-naphthalenyl-methanone, reference compound], at hCB1 receptor, the Emax stood at 92.8%; the EC50 is 30.7 nM and 30.6 nM.
For the compound `CCCCCn1cc(C(=O)O)c2ccccc21` [carboxylic acid PB-22, reference compound], in test [1], the “Activation of the serotonin receptor 5-HT2A in words” value is “activated”. Besides, the “CB1 / hCB1 activity in words” value with CB1 receptor (in vivo rat model and in vitro) is “inactive”.
For the compound `O=C(c1cccc2ccccc12)c1cn(CCCCCO[C@@H]2O[C@H](C(=O)O)[C@@H](O)[C@H](O)[C@H]2O)c2ccccc12` [reference compound], the “Activity on hCB1 in words” value in the test on CB1 receptor is given as “neutral antagonist”.
